From the NIST ThermoML archive (doi:10.1021/acs.jced.6b00327)

Test: xn = mol fraction of the nth substance listed
Settings: Liquid, Buoyancy - hydrostatic balance with magnetic suspension - one sinker

F/C=C/C(F)(F)F [trans-1,3,3,3-tetrafluoropropene] + CCC
Settings	mass density [kg/m3]
253.14 K, x1 = 0.4965	913.53
253.3 K, x1 = 0.1746	680.21
253.44 K, x1 = 0.8803	1197.23
253.45 K, x1 = 0.7006	1067.62
256.11 K, x1 = 0.1746	676.35
258.14 K, x1 = 0.7006	1056.03
258.17 K, x1 = 0.4965	903.57
258.2 K, x1 = 0.8803	1186.23
261.14 K, x1 = 0.1746	670.01
263.15 K, x1 = 0.7006	1043.42
263.16 K, x1 = 0.4965	892.67
263.17 K, x1 = 0.8803	1175.37
265.18 K, x1 = 0.1746	662.22
268.17 K, x1 = 0.7006	1030.6
268.19 K, x1 = 0.4965	884.02
268.2 K, x1 = 0.8803	1162.41
269.18 K, x1 = 0.1746	655.74
273.18 K, x1 = 0.7006	1017.6
273.18 K, x1 = 0.8803	1149.12
273.2 K, x1 = 0.1746	648.23
273.2 K, x1 = 0.4965	873.27
278.19 K, x1 = 0.8803	1135.29
278.2 K, x1 = 0.1746	640.01
278.2 K, x1 = 0.7006	1004.24
278.24 K, x1 = 0.4965	862
283.18 K, x1 = 0.1746	630.77
283.19 K, x1 = 0.4965	851.76
283.19 K, x1 = 0.8803	1121.17
283.2 K, x1 = 0.7006	991.21
288.21 K, x1 = 0.8803	1106.57
288.22 K, x1 = 0.7006	977.85
288.25 K, x1 = 0.4965	842.07
293.28 K, x1 = 0.4965	831.58
293.28 K, x1 = 0.7006	963.78
293.28 K, x1 = 0.8803	1091.31
